Data published in patent publication US11130733B2, “4-OXO-alkylated tetramic acid compound, preparation method and use thereof” (BEIJING JOEKAI BIOTECH. LLC, priority 2017, dated 2021).
Several values for one entry are separate records, joined by “and”; a condition that tells them apart may be missing. Equal entries are not always repeated.

Test: Pharmacokinetic evaluation, plasma and brain concentrations
Assay type: in vivo, ICR mice
Description: Distribution of a medicament in the body is one of the important indicators to determine the dose and efficacy of the medicament. Thus, excellent candidate compounds should have good pharmacokinetic characteristics. In addition, since the compound of the present invention is intended to be used for the treatment of Alzheimer's disease, which is a disease of the central nervous system, the distribution pattern of the compound in the brain and the blood is also one of the subjects to be investigated. In this experiment, compound 50561 was administered to mice […] or by gavage, and the concentrations of the compound in blood and brain were measured at specific time points to determine the pharmacokinetic parameters.
Forty-eight male ICR mice purchased from Shanghai Sippr-BK Lab. Animal Co. Ltd were used in this experiment. The oral group was fasted for 10-14 hours before administration, and feeding was restored 4 hours after administration. Samples were collected from the intravenous administration group 0.083 h, 0.25 h, 0.5 h, 1 h, 2 h, 4 h, 8 h, and 24 h after administration, respectively: while for the oral administration group, about 0.5 mL of blood was collected from the heart 0.25 h, 0.5 h, 1 h, 2 h, 4 h, 6 h, 8 h, and 24 h after administration, respectively. Heparin sodium was used for anticoagulation. Blood samples were collected and placed on ice, and plasma was separated by centrifugation (centrifugation conditions: 8000 rpm, 6 minutes, 4C). The collected plasma was stored at −80° C. before analysis. After collecting plasma samples, brain tissues were collected, washed with normal saline, water-absorbed by filter paper, weighed immediately, and then placed in labeled tubes (one tube for one brain tissue). The samples to be tested were temporarily placed on ice before being stored in a −80° C. refrigerator.
The analysis methods of biological samples and the analysis of all samples were done by Medicilon Pharmaceutical Technology (Shanghai) Co., Ltd. The intraday accuracy evaluation of the quality control samples was carried out while analyzing the samples, and the accuracy of over 66.7% of the quality control samples was required to be between 80-120%.
When calculating the pharmacokinetic parameters, the BLQ before Cmax (including “No peak”) was calculated as 0; BLQ occurring after Cmax (including “No peak”) was not involved in the calculation. WinNonlin Professional V 5.2 (Pharsight, USA) was adopted to calculate the following pharmacokinetic parameters: AUC(0-t), AUC(0-∞), T1/2, MRT(0-∞), Cmax, and Tmax. The tissue/plasma ratio was to be calculated by the following formula based on the blood concentration data at different time points: Tissue/plasma ratio (mL/g)=tissue blood concentration/plasma blood concentration.

O=C1C=C(OCc2ccc(F)cc2)[C@H](Cc2ccccc2)N1 [Compound 50561]
Brain/plasma ratio, Mean (IV 1 mg/kg, 0.083 hr): 2.499 mL/G
Blood concentration, individual mice (IV 1 mg/kg, 0.083 hr, 1 mg/kg): 327.86 ng/mL and 145.16 ng/mL and 434.45 ng/mL
Brain tissue concentration, individual mice (IV 1 mg/kg, 0.083 hr, 1 mg/kg): 853.63 ng/G and 383.96 ng/G
Brain/plasma ratio, individual mice (IV 1 mg/kg, 0.083 hr, 1 mg/kg): 2.604 mL/G and 2.645 mL/G and 2.249 mL/G
Brain/plasma ratio, Mean (IV 1 mg/kg, 0.25 hr): 2.342 mL/G
Blood concentration, individual mice (IV 1 mg/kg, 0.25 hr, 1 mg/kg): 180.29 ng/mL and 215.73 ng/mL
Brain tissue concentration, individual mice (IV 1 mg/kg, 0.25 hr, 1 mg/kg): 435.34 ng/G and 465.70 ng/G
Brain/plasma ratio, individual mice (IV 1 mg/kg, 0.25 hr, 1 mg/kg): 2.451 mL/G and 2.415 mL/G and 2.159 mL/G
Brain/plasma ratio, Mean (IV 1 mg/kg, 0.5 hr): 2.488 mL/G
Blood concentration, individual mice (IV 1 mg/kg, 0.5 hr, 1 mg/kg): 98.13 ng/mL and 89.73 ng/mL
Brain tissue concentration, individual mice (IV 1 mg/kg, 0.5 hr, 1 mg/kg): 251.60 ng/G and 211.84 ng/G
Brain/plasma ratio, individual mice (IV 1 mg/kg, 0.5 hr, 1 mg/kg): 2.540 mL/G and 2.564 mL/G and 2.361 mL/G
Brain/plasma ratio, Mean (IV 1 mg/kg, 1 hr): 3.007 mL/G
Blood concentration, individual mice (IV 1 mg/kg, 1 hr, 1 mg/kg): 18.27 ng/mL and 8.99 ng/mL and 18.70 ng/mL
Brain tissue concentration, individual mice (IV 1 mg/kg, 1 hr, 1 mg/kg): 35.43 ng/G and 51.45 ng/G
Brain/plasma ratio, individual mice (IV 1 mg/kg, 1 hr, 1 mg/kg): 2.330 mL/G and 3.941 mL/G and 2.751 mL/G
Blood concentration, individual mice (IV 1 mg/kg, 2 hr): BLQ
Brain tissue concentration, individual mice (IV 1 mg/kg, 2 hr): BLQ
Blood concentration, individual mice (IV 1 mg/kg, 4 hr): BLQ
Brain tissue concentration, individual mice (IV 1 mg/kg, 4 hr): BLQ
Blood concentration, individual mice (IV 1 mg/kg, 8 hr): BLQ
Brain tissue concentration, individual mice (IV 1 mg/kg, 8 hr): BLQ
Blood concentration, individual mice (IV 1 mg/kg, 24 hr): BLQ
Brain tissue concentration, individual mice (IV 1 mg/kg, 24 hr): BLQ
Brain/plasma ratio, Mean (PO 10 mg/kg, 0.25 hr): 1.877 mL/G
Blood concentration, individual mice (PO 10 mg/kg, 0.25 hr, 10 mg/kg): 655.31 ng/mL and 548.11 ng/mL
Brain tissue concentration, individual mice (PO 10 mg/kg, 0.25 hr, 10 mg/kg): 1042.09 ng/G and 1147.13 ng/G
Brain/plasma ratio, individual mice (PO 10 mg/kg, 0.25 hr, 10 mg/kg): 1.948 mL/G and 1.590 mL/G and 2.093 mL/G
Brain/plasma ratio, Mean (PO 10 mg/kg, 0.5 hr): 2.147 mL/G
Blood concentration, individual mice (PO 10 mg/kg, 0.5 hr, 10 mg/kg): 631.98 ng/mL and 529.57 ng/mL
Brain tissue concentration, individual mice (PO 10 mg/kg, 0.5 hr, 10 mg/kg): 2484.73 ng/G and 1280.85 ng/G and 1048.58 ng/G
Brain/plasma ratio, individual mice (PO 10 mg/kg, 0.5 hr, 10 mg/kg): 2.435 mL/G and 2.027 mL/G and 1.980 mL/G
Brain/plasma ratio, Mean (PO 10 mg/kg, 1 hr): 2.265 mL/G
Blood concentration, individual mice (PO 10 mg/kg, 1 hr, 10 mg/kg): 599.81 ng/mL and 532.80 ng/mL
Brain tissue concentration, individual mice (PO 10 mg/kg, 1 hr, 10 mg/kg): 1290.84 ng/G and 1149.69 ng/G
Brain/plasma ratio, individual mice (PO 10 mg/kg, 1 hr, 10 mg/kg): 2.485 mL/G and 2.152 mL/G and 2.158 mL/G
Brain/plasma ratio, Mean (PO 10 mg/kg, 2 hr): 2.329 mL/G
Blood concentration, individual mice (PO 10 mg/kg, 2 hr, 10 mg/kg): 128.34 ng/mL and 83.99 ng/mL and 219.54 ng/mL
Brain tissue concentration, individual mice (PO 10 mg/kg, 2 hr, 10 mg/kg): 277.53 ng/G and 206.08 ng/G and 520.70 ng/G
Brain/plasma ratio, individual mice (PO 10 mg/kg, 2 hr, 10 mg/kg): 2.163 mL/G and 2.454 mL/G and 2.372 mL/G
Brain/plasma ratio, Mean (PO 10 mg/kg, 4 hr): 2.052 mL/G
Blood concentration, individual mice (PO 10 mg/kg, 4 hr, 10 mg/kg): 27.74 ng/mL and 18.40 ng/mL and 10.71 ng/mL
Brain tissue concentration, individual mice (PO 10 mg/kg, 4 hr, 10 mg/kg): 65.84 ng/G and 44.67 ng/G and 14.52 ng/G
Brain/plasma ratio, individual mice (PO 10 mg/kg, 4 hr, 10 mg/kg): 2.373 mL/G and 2.428 mL/G and 1.355 mL/G
